# Assay: Compatibility: degradation products of aspirin/carbonate blends by HPLC
# Assay type: physicochemical
# Experimental: The degradation products of various combinations of aspirin and various carbonates were determined for different combinations of aspirin and different grades and sources of carbonates to evaluate the compatibility and stability. Milling for about fifteen minutes appeared to slightly induce the production of free salicylic acid (FSA), but not to a significant extent. […] The results are shown in Table 3 (all blend percentages are weight percentages obtained using High Performance Liquid Chromatography (HPLC))
smiles,measurement,value
"CC(=O)Oc1ccccc1C(=O)O [100% Aspirin-Milled 15 min, Aspirin]",Acetyl Salicylic Salicylic Acid ASSA,0.00%
same,FSA (free salicylic acid),0.00%

# Reference: patent publication US11135188B2, “Method and composition to improve absorption of therapeutic agents” (Bayer HealthCare LLC, priority 2009, dated 2021)
